Results reported in paper doi:10.1101/2024.08.25.609621 (bioRxiv, 2024).
Several values for one entry are separate records, joined by “and”; a condition that tells them apart may be missing. Equal values may be shown once. Read-outs that look alike come from different tables or passages of the source.

How the values were obtained:
[1] = biological target: SARS-CoV-2 NSP3 macrodomain (Mac1) (Severe acute respiratory syndrome coronavirus 2, UniProt P0DTD1); test: biochemical; type: binding; conditions: for IC50: read-out: SARS CoV-2 macrodomain HTRF assay: IC50; for SARS CoV-2 macrodomain HTRF assay: Hillslope: dose-response fit
[2] = biological target: SARS-CoV-2 NSP3 macrodomain (Mac1), P43 crystal form (Severe acute respiratory syndrome coronavirus 2, UniProt P0DTD1); type: binding; conditions: for 1-BDC: PanDDA background density correction; for Total number of conformations: ligand conformations modeled in Mac1 crystal structure; for X-ray crystallography: Binding site: site where the ligand is bound in the X-ray crystal structure
[3] = preliminary screen, compound at 200 μM, mean of 3-4 technical replicates, read-out: % competition in HTRF assay
[4] = occupancy estimate from PanDDA 1-BDC
[5] = soak concentration 10 mM, DMSO background map
[6] = crystal soak 10 mM, P43 crystals
[7] = crystal soak 10 mM, DMSO background map
[8] = occupancy estimate from PanDDA BDC
[9] = crystal soak concentration 10 mM, P43 crystals
[10] = crystal soak concentration 10 mM, DMSO background map

Cc1c[nH]c2ncnc(NCC3(O)CC[S+]([O-])CC3)c12 (stereo not shown) [AVI-4198]
IC50 ([1]; dose-response): > 1000 µM

OCC1C2CCC(C2)N1c1ncnc2[nH]ccc12 (stereo not shown) [AVI-3713]
Hill slope ([1]; HTRF dose-response fit, Mac1): 1.1
inhibition at 200 µM ([1]; Single dose, concentration 200 μM, read-out: SARS CoV-2 macrodomain HTRF assay: Average % competition): 92%
SARS CoV-2 macrodomain HTRF assay: Hillslope [1]: 1.1
inhibition at 200 µM [1, 3]: 92%
1-BDC [2]: 0.29
Pandda run, overall: Modeled ([2]; crystal soak, soak concentration 10 mM): TRUE
Pandda run, overall: Hit ([2]; crystal soak, soak concentration 10 mM, TRUE = ligand hit): TRUE
Total number of conformations [2]: 1
2*(1-BDC) (%) [2, 4]: 58%
X-ray crystallography: Binding site [2]: Adenosine
PanDDA run, DMSO background map: 1-BDC [2, 5]: 0.29
PanDDA run, DMSO background map: Hit [2, 5]: TRUE

CC(O)C1CCCN1c1ncnc2[nH]ccc12 (stereo not shown) [AVI-4062]
Hill slope ([1]; HTRF dose-response fit, Mac1): 1.1
SARS CoV-2 macrodomain HTRF assay: Hillslope [1]: 1.1
Occupancy difference (refined_occupancy - 2*(1-BDC)) [2]: 18
Refined ligand occupancy (%) [2]: 70%
1-BDC [2]: 0.26
Hit (PanDDA run, overall) [2, 6]: TRUE
Hit (PanDDA run, DMSO background map) [2, 7]: TRUE
1-BDC (PanDDA run, DMSO background map) ([2]; crystal soak 10 mM, DMSO background map, event 1): 0.26 and 0.29
Total number of conformations [2]: 1
2*(1-BDC) (%) [2, 8]: 52%
X-ray crystallography: Binding site [2]: Adenosine

CC(C)(O)C1C2CCCCC2CN1c1ncnc2[nH]ccc12 (stereo not shown) [AVI-4127]
Hill slope ([1]; HTRF dose-response fit, Mac1): 1.3
SARS CoV-2 macrodomain HTRF assay: Hillslope [1]: 1.3
Occupancy difference (refined_occupancy - 2*(1-BDC)) [2]: 10
Phe132 loop open state [2]: TRUE
Refined ligand occupancy (%) [2]: 60%
1-BDC [2]: 0.25
PanDDA run, DMSO background map: 1-BDC ([2]; crystal soak concentration 10 mM, DMSO background map, event 1): 0.23 and 0.25
Pandda run, overall: Hit [2, 9]: TRUE
Pandda run, overall: Modeled [2, 9]: TRUE
Pandda run, overall: Modeling comment [2, 9]: Duplicate, not modeled
PanDDA run, DMSO background map: Hit [2, 10]: TRUE
PanDDA run, DMSO background map: Modeled [2, 10]: TRUE
Total number of conformations [2]: 2
2*(1-BDC) (%) [2, 8]: 50%
X-ray crystallography: Binding site [2]: Adenosine

OC1(CNc2ncnc3[nH]ccc23)CCOCC1 [AVI-4314]
Hill slope ([1]; HTRF dose-response fit, Mac1): 1.2
SARS CoV-2 macrodomain HTRF assay: Hillslope [1]: 1.2
Occupancy difference (refined_occupancy - 2*(1-BDC)) [2]: 0
Refined ligand occupancy (%) [2]: 30%
PanDDA run, DMSO background map: 1-BDC ([2]; DMSO background map, event 1): 0.15 and 0.16
1-BDC [2]: 0.15
Total number of conformations [2]: 1
2*(1-BDC) (%) [2, 8]: 30%
X-ray crystallography: Binding site [2]: Adenosine

OC1(CNc2ncnc3[nH]ccc23)CCC2(CC1)OCCO2 [AVI-4315]
Hill slope ([1]; HTRF dose-response fit, Mac1): 1.2
SARS CoV-2 macrodomain HTRF assay: Hillslope [1]: 1.2

CCC(C)(CO)Nc1ncnc2[nH]ccc12 (stereo not shown) [AVI-3697]
Hill slope ([1]; HTRF dose-response fit, Mac1): 1.2
Hill slope ([1]; SARS CoV-2 macrodomain HTRF assay, dose-response): 1.2
inhibition at 200 µM ([1]; Single dose, concentration 200 μM, read-out: Average % competition): 91%
inhibition at 200 µM [1, 3]: 91%
1-BDC [2]: 0.16
X-ray crystal structure ([2]; X-ray crystal structure determined (TRUE)): TRUE
Pandda run, overall: Hit [2, 6]: TRUE
Pandda run, overall: Modeled [2, 6]: TRUE
PanDDA run, DMSO background map: 1-BDC [2, 7]: 0.16
PanDDA run, DMSO background map: Hit [2, 7]: TRUE
Total number of conformations [2]: 1
2*(1-BDC) (%) [2, 4]: 32%
Binding site ([2]; site of ligand in X-ray crystal structure): Adenosine

CN(CC1(O)CCOCC1)c1ncnc2[nH]ccc12 [AVI-4318]
Hill slope ([1]; HTRF dose-response fit, Mac1): 1.2
SARS CoV-2 macrodomain HTRF assay: Hillslope [1]: 1.2
Occupancy difference (refined_occupancy - 2*(1-BDC)) [2]: 0
Refined ligand occupancy (%) [2]: 50%
PanDDA run, DMSO background map: 1-BDC ([2]; DMSO background map, event 1): 0.26 and 0.25
1-BDC [2]: 0.25
Total number of conformations [2]: 1
2*(1-BDC) (%) [2, 8]: 50%
X-ray crystallography: Binding site [2]: Adenosine

FC(F)(F)C1CCCN1c1ncnc2[nH]ccc12 (stereo not shown) [AVI-5996]
IC50 ([1]; dose-response): > 1000 µM
